In article PMC6435334 (Nature chemical biology, 2018):

Columns and labels:
[1] = target: D-apionate lactonase / D-apionolactonase (A6X3G3, "hypothetical" protein) (Brucella anthropi, UniProt A6X3G3)
[2] = target: D-apiose dehydrogenase (B9JK80) (Martinezella rhizogenes, UniProt B9JK80); assay: NADH formation, […] nm; type: biochemical; settings: 1.5 mM NAD+; 50 mM Tris-HCl pH 8.5; 25 °C; furanose D-apiose
Chain of D-apiose dehydrogenase (B9JK80) (B9JK80 whole entry): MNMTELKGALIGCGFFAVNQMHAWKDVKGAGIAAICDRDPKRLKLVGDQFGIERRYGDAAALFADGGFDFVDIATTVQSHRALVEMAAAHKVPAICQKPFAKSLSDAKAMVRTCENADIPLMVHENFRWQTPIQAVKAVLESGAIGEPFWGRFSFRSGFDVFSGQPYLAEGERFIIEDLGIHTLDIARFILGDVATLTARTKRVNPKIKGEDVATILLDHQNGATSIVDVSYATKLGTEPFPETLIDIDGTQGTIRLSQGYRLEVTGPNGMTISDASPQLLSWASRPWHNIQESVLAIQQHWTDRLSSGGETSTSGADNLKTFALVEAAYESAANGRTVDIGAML

Chain of D-apionate lactonase / D-apionolactonase (A6X3G3, "hypothetical" protein) (A6X3G3 whole entry, looked up, one chain of several): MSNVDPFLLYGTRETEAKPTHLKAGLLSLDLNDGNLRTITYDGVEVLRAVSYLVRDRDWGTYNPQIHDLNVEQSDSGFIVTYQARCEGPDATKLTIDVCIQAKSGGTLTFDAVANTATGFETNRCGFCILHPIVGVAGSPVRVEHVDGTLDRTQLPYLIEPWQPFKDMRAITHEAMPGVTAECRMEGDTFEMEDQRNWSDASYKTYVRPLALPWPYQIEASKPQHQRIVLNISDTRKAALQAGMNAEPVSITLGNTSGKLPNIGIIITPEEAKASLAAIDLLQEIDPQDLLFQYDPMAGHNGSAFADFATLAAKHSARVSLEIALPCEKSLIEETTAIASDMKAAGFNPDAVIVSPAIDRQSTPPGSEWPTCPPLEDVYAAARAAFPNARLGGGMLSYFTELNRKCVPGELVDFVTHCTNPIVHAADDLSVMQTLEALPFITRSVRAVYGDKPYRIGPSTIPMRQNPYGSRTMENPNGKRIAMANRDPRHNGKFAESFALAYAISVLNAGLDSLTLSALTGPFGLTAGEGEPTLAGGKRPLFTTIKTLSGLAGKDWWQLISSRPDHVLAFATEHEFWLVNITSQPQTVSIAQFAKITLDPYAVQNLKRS

Structure (SMILES)	1H NMR, D-apionolactone generated in situ by B9JK80 [1]	KM [2]
O=C1OCC(O)(CO)[C@H]1O (stereo partly drawn) [D-apionolactone]	it hydrolyzed D-apionolactone to D-apionate	–
O=C[C@H](O)C(O)(CO)CO [D-apiose]	–	(B9JK80) catalyzed oxidation of D-apiose to D-apionolactone using NAD^+
